The term EC50 denotes the midpoint of the concentration-response curve. In general, AUC(0-inf) refers to the area under the concentration-time curve extrapolated to infinity. The low end stands for less exposure, the high end for more exposure. A word on the Cmax: it is the peak of the concentration-time curve. What is called Tmax is the time at which the peak concentration occurs. As usually defined, the half-life is the time in which the quantity being followed falls by half.

These results are taken from US10519145B2, “Pyrazole-oxazolidinone compound for anti-hepatitis B virus” (Shanghai Zhimeng Biopharma Co., Ltd., priority 2016, dated 2019).

For data set [1], the system named is HBV genotype AB246346 (C). Description: Anti-different genotypic HBV strain activity assay in vitro, transient transfection. Type of data set: cell-based. The conditions noted are these: Hepatitis B virus, HepG2. The method, then: (§1) Compounds were tested for in vitro activity against different genotypic HBV strains using a transient transfection cell model. HepG2 cells (4×10^4 cells/well) that had been transfected with different HBV genotypic strains were seeded into 96-well plates and cultured overnight at 37° C. in 5% CO2. The next day, fresh cultures containing compounds in different concentrations were added into the culture wells. On the fifth day, the old culture medium in the culture wells was aspirated and removed. The fresh medium containing compounds in different concentrations was added. On the eighth day, supernatants in the culture wells were collected and used to extract HBV DNA in the supernatant. qPCR assay was used to detected HBV DNA content in the HepG2 supernatant.

In data set [2] the test system is HBV genotype JN406371 (B). The data set is described as above. It is filed as cell-based. The settings on record: Hepatitis B virus, HepG2. The method, then: as §1
In data set [3] the test system is HBV genotype AP007263 (A). The data set is described as above. The settings on record: Hepatitis B virus, HepG2. It is filed as cell-based. On the procedure: as §1
Data set [4] relates to HBV genotype AB033554 (B). Described as above. Type of data set: cell-based. The settings on record: Hepatitis B virus, HepG2. On the procedure: as §1
In data set [5] the test system is HBV genotype HE974371 (A2). Described as above. It is filed as cell-based. The settings on record: Hepatitis B virus, HepG2. On the procedure:
as §1

The subject of another data set is HBV genotype U95551 (D). Described as above. Type of data set: cell-based. The settings on record: Hepatitis B virus, HepG2. The method, then:
as §1

The subject of data set [6] is HBV genotype AB246345 (C). The data set is described as above. The settings on record: Hepatitis B virus, HepG2. Type of data set: cell-based. The method, then:
as §1

The next data set concerns HBV (HepG2.2.15 cells). Description: Anti-HBV activity experiment in vitro (HepG2.2.15, HBV DNA in supernatant, qPCR). The conditions noted are these: Hepatitis B virus, HBV DNA in supernatant by qPCR, eighth day. Type of data set: cell-based. On the procedure:
Compound Dilution: initial concentrations of all compounds used in the anti-HBV activity experiments in vitro were 1 μM, 3-fold diluted into 8 concentrations; initial concentrations of all compounds used in the cytotoxicity assay were 100 μM, 3-fold diluted into 8 concentrations; and the mother liquor of the compound was diluted with DMSO.
Anti-HBV Activity Experiment In Vitro: HepG2.2.15 cells (4×10^4 cells/well) were seeded in 96-well plates and cultured overnight at 37° C. in 5% CO2. The next day, fresh cultures containing compounds in different concentrations were added into the culture wells. On the fifth day, the old culture medium in the culture wells was aspirated and removed. Fresh medium containing compounds in different concentrations was added. On the eighth day, supernatants in the culture wells were collected and used to extract HBV DNA in the supernatant. qPCR assay was used to detect HBV DNA content in the HepG2.2.15 supernatant.
The data analysis and the percentage of inhibition calculation: the percentage of inhibition was calculated by using the following formula: Inhibition %=[(HBV amount in DMSO control−HBV amount in sample)/HBV amount in DMSO control]×100%.

A further data set relates to HBV DNA in mouse plasma. Description: Determination of pharmacodynamics in vivo (high pressure tail vein injection of HBV DNA). The settings on record: 25 mpk, intraperitoneal daily. On the procedure:
High pressure injection of HBV DNA in tail vein and administration methods:
HBV plasmid DNA solution was high-pressure injected via the tail veins of the mouse: the plasmid DNA was pre-dissolved in physiological saline (10 μg/1.4 ml, 10 μg/1.5 ml) before injection and stored at 4 until its use. The mice were injected with a plasmid DNA solution at a dosage of 8% of the body weight from the tail vein in 5 seconds. If the injection volume is less than or equal to 1.4 ml, 10 μg/1.4 ml of plasmid solution was used; if the injection volume is greater than or equal to 1.5 ml, 10 μg/1.5 ml of plasmid solution was used.
On 1st-7th day, the mice were continuously injected intraperitoneally with the test compound or solvent for 7 days. […] The plasma was divided into two and one was sent to anti-infective groups in the Department of Biology for HBV DNA detection, and the other was ready for use. […]
Quantitative PCR was used to detect the content of HBV DNA in mouse plasma. […]
Quantitative PCR detection of HBV DNA content: In order to rule out possible interference with injected HBV plasmid DNA, two sets of primers and probes were used simultaneously for the assay. […]
HBV DNA content =DNA content detected by HBV primers - DNA content detected by pAAV2 primers

Data set [7] relates to nucleoside drug-resistant HBV strain M204I. Description: In vitro anti-nucleoside drug-resistant HBV strain activity experiment, transient transfection. Type of data set: cell-based. The settings on record: Hepatitis B virus, HepG2. On the procedure:
as §1, with “against nucleoside drug-resistant” for “against different genotypic”, “with nucleoside drug-resistant” for “with different”, “HBV” for “HBV genotypic”, “to detect” for “to detected”

In data set [8] the test system is nucleoside drug-resistant HBV strain M204I + S202G + M250V. Described as above. Type of data set: cell-based. The conditions noted are these: Hepatitis B virus, HepG2, 192 h. The method, then:
as §1, with “against nucleoside drug-resistant” for “against different genotypic”, “with nucleoside drug-resistant” for “with different”, “HBV” for “HBV genotypic”, “to detect” for “to detected”

Data set [9] relates to nucleoside drug-resistant HBV strain L180M + M204V. The description is as above. It is filed as cell-based. The settings on record: Hepatitis B virus, HepG2, 192 h. On the procedure:
as §1, with “against nucleoside drug-resistant” for “against different genotypic”, “with nucleoside drug-resistant” for “with different”, “HBV” for “HBV genotypic”, “to detect” for “to detected”

The test system of data set [10] is nucleoside drug-resistant HBV strain M204I + S202G. Described as above. The conditions noted are these: Hepatitis B virus, HepG2, 192 h. Type of data set: cell-based. The method, then: as §1, with “against nucleoside drug-resistant” for “against different genotypic”, “with nucleoside drug-resistant” for “with different”, “HBV” for “HBV genotypic”, “to detect” for “to detected”

The test system of another data set is HBV strain U95551 (WT). The description is as above. Type of data set: cell-based. The conditions noted are these: Hepatitis B virus, transfected HepG2 cells. The method, then:
as §1, with “against nucleoside drug-resistant” for “against different genotypic”, “with nucleoside drug-resistant” for “with different”, “HBV” for “HBV genotypic”, “to detect” for “to detected”

Data set [11] deals with nucleoside drug-resistant HBV strain M204I + V173L. Described as above. It is filed as cell-based. The settings on record: Hepatitis B virus, HepG2, 192 h. The method, then:
as §1, with “against nucleoside drug-resistant” for “against different genotypic”, “with nucleoside drug-resistant” for “with different”, “HBV” for “HBV genotypic”, “to detect” for “to detected”

The nature of data set [12]: Pharmacokinetic determination in mice (subcutaneous). It is filed as in vivo. The conditions noted are these: sc, female BALB/c mouse, single administration, plasma. On the procedure:
In addition, the pharmacokinetics of the compound of Example 3 (R isomer) in the present application was determined in mice.
Test compounds were subcutaneously administered to female BALB/c mouse once and blood samples were taken at different time points. LC/MS/MS was used to determine the concentration of the test compounds in the […] plasma after administration of the test compounds and calculate relevant parameters.
Animal blood collection time points were: before administration, 5 min, […], 30 min, 1 h, 2 h, 4 h, 8 h and 24 h after administration.
Mass Spectrometer: Triple Quad 5500. Mass Spectrometry Conditions: SRM Detection
Liquid phase conditions: Column: XSELECT CSHTM XP C18 (2.1×50 mm, 2.5 μm); chromatographic mobile phase: mobile phase A: 0.025% FA & 1 mM NH4OAc in water/CAN solution (v:v, 95: 5), mobile phase B: 0.025% FA & 1 mM NH4OAc in ACN/water solution (v:v, 95: 5) (A:B =65%: 35%-10%: 90%); flow rate: 0.6 mL/min; column temperature: 50° C.
According to the drug blood concentration data, the pharmacokinetic parameters of the test compound were calculated using the pharmacokinetic calculation software WinNonlin 5.2 non-compartmental model.

On to `O=C1CO[C@H](c2cn(-c3ccc(Br)cc3)nc2-c2ccc(F)cc2)N1CCc1ccc2[nH]c(=O)[nH]c2c1` [example 3 R isomer, (R)-3-(2-(2-oxo-2,3-dihydro-1H-benzo[d]imidazol-5-yl)ethyl)-2-(1-(4-bromophenyl)-3-(4-fluorophenyl)-1H-pyrazol-4-yl)-oxazolidin-4-one], for which the EC50 in [1] amounted to 14.6 nM; in data set [2] it was 8.69 nM; in data set [3], 33.9 nM; in data set [4], 13.6 nM; in data set [5], 4.67 nM; with HBV genotype U95551 (D), 14.4 nM. For the same compound, the EC50 in data set [6] is 6.26 nM; in the data set on HBV (HepG2.2.15 cells), 7.68 nM; in [7], 21.2 nM; in [8] it was 13.6 nM; in data set [9], 18.9 nM; in data set [10] it was 11.6 nM. For the same compound, the EC50 was 19.1 nM with HBV strain U95551 (WT) and 14 nM in data set [11]. Moreover, the “decrease of HBV DNA content in mouse plasma” value came to 0.55 log in the data set with HBV DNA in mouse plasma (1st day) and 1.84 log with HBV DNA in mouse plasma (3rd day). The compound also returned an AUC(0-inf) in [12] of 2080 ng·h/mL. Also, in data set [12], the peak level (Cmax) was 643 ng/mL. In [12], the Tmax is 1.33 h. The same compound had a half-life in data set [12] of 71.4 min. The MRT inf in data set [12] (read-out: MRT0-inf) is 2.4 h.
